In patent US8680081B2, “Prophylactic treatment of migraine” (priority 2000, dated 2014):

Assays:
[1] = Prophylactic treatment of migraine by regular administration, patient case reports; format: in vivo, human
Method: The method for prophylactic treatment includes regular administration of a therapeutically effective amount of a combination comprising a cyclooxygenase-2 inhibitor and acetylsalicylic acid or active derivative. Administration of the combination including a cyclooxygenase-2 inhibitor may include administration of one or more cyclooxygenase-2 inhibitors.
The combination is administered regularly, meaning that the combination is administered periodically or aperiodically over a period of several days or weeks, in an effort to prevent migraine attacks, and is not merely administered in response or reaction to migraine symptoms. Regular administration may include once-daily administration of each agent, administration on alternate days, or any other periodic or aperiodic schedule that is determined to be effective as a planned course of treatment for preventing migraine.
A patient with an established history of recurrent migraine was treated with a daily oral dose of 25 milligrams of VIOXX (rofecoxib tablets, Merck & Co, Inc., Whitehouse Station, N.J.). […]
A patient with an established history of recurrent migraine was treated with a daily oral dose of 200 milligrams of CELEBREX (celecoxib capsules, G.D. Searle & Co., Chicago, Ill.).
A patient with a well-established history of recurrent migraine attacks heralded by an aura of dysphasia (i.e., difficulty in finding words) begins taking 25-50 milligrams of rofecoxib at the onset of the dysphasic symptoms. […] Because they have lately suffered more than four migraine attacks per month, on the advice of their physician they continue daily dosing of 12.5-25 milligrams of rofecoxib over time. […]

[2] = Targeted prophylactic treatment of migraine before a time window, trigger or attack, patient case reports; format: in vivo, human
Description: In another embodiment, the invention provides a method for targeted prophylactic treatment of a migraine condition. The method includes determining a time window or selected time period in which a patient desires to be free from migraine; and administering to the patient, at a time prior to the determined time window, a therapeutically effective amount of a cyclooxygenase-2 inhibitor, either alone or in combination with acetylsalicylic acid or active derivative, to prevent or reduce migraine symptoms during the time window.
Prior to the determined time window, a therapeutically effective amount of a cyclooxygenase-2 inhibitor is administered to the patient. By “prior,” it is meant that the administration is temporally before the determined time window, but sufficiently close in time so that the prophylactic effect of the cyclooxygenase-2 inhibitor is experienced throughout most or all of the determined time window.
A patient with an established history of migraine brought on by glare associated with an ophthalmic operating room microscope was treated with 6 milligrams of IMITREX by injection (Glaxo Wellcome Inc.), and an oral dose of 12.5 to 25 milligrams of VIOXX (Merck & Co, Inc.) the night before a scheduled ophthalmic operation.
(§1) A patient with an established history of migraine brought on by glare associated with repeated use of a slit lamp biomicroscope was treated with an oral dose of 12.5 to 25 milligrams of VIOXX (Merck & Co, Inc.) the night before a scheduled clinic.
as §1, with “Inc.) and 325 milligrams aspirin (over-the-counter aspirin tablets)” for “Inc.)”
(§2) A patient with an established history of migraine brought on by occasional consumption of red wine (as a beverage or in a sauce or dressing) was treated with an oral dose of 12.5 to 25 milligrams of VIOXX (Merck & Co, Inc.) on the same day as such consumption before migraine attack symptoms are evident.
as §2, with “Inc.) and 162.5 milligrams aspirin (over-the-counter aspirin tablets)” for “Inc.)”
(§3) A patient with a well-established history of recurrent migraine attacks learns to recognize their prodromal symptoms of altered mood, irritability, fatigue, and craving for sweets which typically occur 3 to 24 hours prior to the fully developed phase of their migraine. They learn over time that these prodromal symptoms eventually lead to a migraine attack in most cases. Their migraine attacks typically include unusual sensitivity to light and sound, difficulty concentrating, headache, and less commonly, nausea. As soon as they recognize the prodromal symptoms, they take a one-time dose of 25-50 milligrams of rofecoxib, followed by 12.5-25 milligrams of rofecoxib daily.
as §3, with “rofecoxib and 162.5-325 milligrams aspirin,” for “rofecoxib,”, “rofecoxib and 162.5-325 milligrams aspirin” for “rofecoxib”, “daily. […]” for “daily.”

[3] = Example 1, daily oral 25 milligrams VIOXX, treatment period three to four weeks

| SMILES | intensity of the symptoms of a subsequent migraine ([1]; Example 4, daily oral 200 milligrams CELEBREX) | migraine symptoms ([1]; Example 4, daily oral 200 milligrams CELEBREX, treatment period ten to fourteen days) | migraine symptoms ([1]; Example 1, daily oral 25 milligrams VIOXX, first week of use) | frequency of migraine attacks [1, 3] | intensity of the symptoms of subsequent migraine attacks [1, 3] | frequency and intensity of the migraine attacks ([1]; Example 12, continued daily 12.5-25 milligrams rofecoxib) | migraine symptoms before, during and after the scheduled clinic ([2]; Example 6, glare-induced migraine, oral 12.5 to 25 milligrams VIOXX the night before) | duration of therapeutic benefit ([2]; Example 8, further daily oral 12.5 to 25 milligrams VIOXX after red wine) | migraine symptoms in the period when symptoms would normally be expected ([2]; Example 8, red wine-induced migraine, oral 12.5 to 25 milligrams VIOXX same day as consumption) | migraine attack symptoms ([2]; Example 10, at prodromal symptoms one-time 25-50 milligrams rofecoxib, then 12.5-25 milligrams daily) | period of benefit with continued daily dosing ([2]; Example 10, continued daily 12.5-25 milligrams rofecoxib) | intensity and length of the migraine attack symptoms ([2]; Example 12, 25-50 milligrams rofecoxib at onset of dysphasic aura) |
| --- | --- | --- | --- | --- | --- | --- | --- | --- | --- | --- | --- | --- |
| Cc1ccc(-c2cc(C(F)(F)F)nn2-c2ccc(S(N)(=O)=O)cc2)cc1 [CELEBREX, 4-[5-(4-methylphenyl)-3-(trifluoromethyl)-1H-pyrazol-1-yl]] | reduced intensity | free of migraine symptoms |  |  |  |  |  |  |  |  |  |  |
| CS(=O)(=O)c1ccc(C2=C(c3ccccc3)C(=O)OC2)cc1 [VIOXX, 4-[4-(methylsulfonyl)phenyl]-3-phenyl-2(5H)-furanone] |  |  | free of migraine symptoms | reduced frequency | reduced intensity | substantial decrease in the frequency and intensity | free of migraine symptoms | extended for several days | either free of, or experienced substantially reduced, migraine symptoms | either free of, or has greatly reduced, migraine attack symptoms | several days (or longer) | reduction in the intensity and length |
